Assay [1] has as its system PYR/PYL-PP2C protein-protein interactions. In words: Yeast competition screen: reduction of ABA-promoted PYR/PYL-PP2C interaction. It is filed as cell-based. The following applies: 100 nM ABA and 100 μM test chemical (1000-fold excess), yeast strains. From the text: To isolate PYR1 orthogonal receptors, a two-step process was used. First, a large collection of compounds was screened to identify compounds that weakly interact with receptors, defined as such by their ability to displace receptor-bound ABA in competition experiments. Once weak binders were identified, those with the most desirable properties from an end-use perspective were used as targets for iterative mutagenesis and selection schemes. Pre-selection of weak-binding ligands improves the frequency of isolating new receptor proteins, because fewer alterations of the ligand binding site are required to achieve molecular recognition. However, pre-selection is not a prerequisite for success.
Pre-selection of ligands. 74 structurally diverse agrochemicals were obtained, selected from a larger set of approximately 1500 commercially available agrochemicals. These 74 compounds were tested for their ability to reduce ABA-promoted PYR/PYL-PP2C protein-protein interactions in suitable yeast strains when added at 1000-fold excess relative to ABA (i.e. 100 nM ABA and 100 μM test chemical).

Another assay addresses T1, PYR1 mutant 74A-1 (Arabidopsis thaliana, UniProt O49686, H60R/K59R/N151D).
T1 construct: expressed in transfected cells
In words: Yeast two-hybrid assay confirming bromoxynil responsiveness. It is filed as cell-based. The settings on record: 10, 25, and 50 μM (applied 5, 10, 25, 50 μM). As to the method: (§1) Plasmids for three representative mutant clones (27-9, 27-18, and 27-36) were isolated from the primary yeast cells and transformed into a pAD-HAB1 expressing YRG-2 reporter strain (Park et al., Science 324:1068-1071 (2009)) in which Ga14 drives expression of a LacZ reporter gene to allow colorimetric indication of agonist response. Fenhexamid was applied at concentrations of 1, 5, 10, 25, and 50 μM. […] Mutant 27-36 was responsive to fenhexamid at 25 and 50 μM concentrations.
(§2) Screens for bromoxynil (Table 2), dichlobenil (Table 3), and benoxacor (Table 4) responsive PYR1 mutants were conducted as described above for fenhexamid, each utilizing 200 μM test compound and the A′ library, generated as described above. Yeast two-hybrid assay confirmed bromoxynil responsiveness for representative mutant clones 74A-1 and 74A-2. Bromoxynil was applied at concentrations of 5, 10, 25, and 50 μM. Both mutants 74A-1 and 74A-2 were responsive to bromoxynil at concentrations of 10, 25, and 50 μM.

A further assay has as its target T2, PYR1 mutant 74A-2 (Arabidopsis thaliana, UniProt O49686, K59R/S92T).
T2 construct: expressed in transfected cells; host or cells: Saccharomyces cerevisiae two-hybrid reporter strain expressing pAD-HAB1 (YRG-2 is named only for the fenhexamid confirmation)
The assay is described as above. It is filed as cell-based. The following applies: 10, 25, and 50 μM (applied 5, 10, 25, 50 μM). On the procedure:
as §1, §2

The next assay has as its target T3, PYR1 mutant BTH-9 (Arabidopsis thaliana, UniProt O49686, F159L).
T3 construct: expressed in transfected cells; host or cells: Saccharomyces cerevisiae two-hybrid reporter strain expressing pAD-HAB1 (strain not restated for BTH)
In words: Yeast two-hybrid assay confirming BTH responsiveness. It is filed as cell-based. The following applies: 50, 100, and 200 μM (applied 25, 50, 100, 200 μM). On the procedure: as §1
Given the plasticity of PYR1 indicated by these experiments, we sought to establish if an orthogonal receptor could be isolated for a target ligand that was not prescreened for weak binding using the yeast competition assays described above. The same screening methodology as described above was used to screen for mutants that respond to BTH (acibenzolar-s-methyl). […] Yeast two-hybrid assay confirmed BTH responsiveness for representative mutant clone BTH-9. […] was applied at concentrations of 25, 50, 100, and 200 μM, and mutant BTH-9 was responsive to BTH at concentrations of 50, 100, and 200 μM. Thus, the plasticity of PYR1 enables many orthogonal receptor variants to be isolated.

The target of a further assay is wild-type PYR1 (WT) (Arabidopsis thaliana, UniProt O49686). In words: Responsiveness of PYR1 K59 mutants to ABA and dichlobenil. It is filed as cell-based. On the procedure:
(§3) To test these two hypotheses, a series of K59 mutants were constructed in PYR1 and examined for their sensitivity to the native ligand ABA and the orthogonal ligand dichlobenil (Table 6). Dichlobenil was chosen as a model orthogonal ligand for these studies because it was observed that it is a weak PYR/PYL agonist (i.e., it can weakly activate receptors at concentrations of 200 μM or higher). Dichlobenil therefore provides a useful test molecule with which to probe a mutant's sensitivity to an orthogonal ligand.

In the next assay the test system is PYR/PYL receptors. In words: Observed weak agonism of PYR/PYL receptors. The settings on record: weak PYR/PYL agonist. As to the method: as §3
For a further assay, the target named is PYR1 (Arabidopsis thaliana, UniProt O49686). The following applies: cited from earlier work.
Another assay addresses PYL1 (Arabidopsis thaliana, UniProt Q8VZS8). The settings on record: cited from earlier work.
A further assay concerns the target PYL2 (Arabidopsis thaliana, UniProt O80992). The settings on record: cited from earlier work.
For assay [2], the target named is T4, 6×-His-PYR1(27-18) (S47P, K59R, Y120H) (Arabidopsis thaliana, UniProt O49686, K59R/S47P/Y120H).
T4 construct: 6x-His (N); made in house
In words: In vitro PP2C phosphatase activity assay (receptor activation = inhibition of PP2C). It is filed as biochemical. The settings on record: mutant 27-18; increasing concentrations; 10 mM Mn++ buffer; FIG. 1. As to the method: (§4) FIGS. 1A-1B. PYR1 mutant 27-18 confers responsiveness to fenhexamid but not ABA. Representative PYR1 mutant 27-18 (comprising S47P, K59R, and Y120H substitution mutations) was tested for responsiveness to abscisic acid (“ABA”) (FIG. 1A) and fenhexamid (FIG. 1B) at increasing concentrations as compared to a wild-type PYR1 control using an in vitro PP2C phosphatase activity assay.
(§5) To probe orthogonal receptor-ligand interactions further, recombinant protein was expressed for the fenhexamid-responsive mutant 27-18, which has three mutations in PYR1. 6×-His-PYR1(27-18) protein was expressed and purified alongside wild-type PYR1 protein. Both proteins were tested for their ability to inhibit PP2C activity in response to increasing concentrations of either ABA or fenhexamid using phosphatase activity assays, in which activation of the PYR/PYL receptor is monitored by inhibition of PP2C activity (FIG. 1).

The target in the next assay is T5, wild-type PYR1 protein (Arabidopsis thaliana, UniProt O49686).
T5 construct: made in house
The assay is described as above. It is filed as biochemical. The settings on record: increasing concentrations, 10 mM Mn++ buffer, FIG. 1. On the procedure: as §4, §5

T3 sequence (O49686 whole entry F159L): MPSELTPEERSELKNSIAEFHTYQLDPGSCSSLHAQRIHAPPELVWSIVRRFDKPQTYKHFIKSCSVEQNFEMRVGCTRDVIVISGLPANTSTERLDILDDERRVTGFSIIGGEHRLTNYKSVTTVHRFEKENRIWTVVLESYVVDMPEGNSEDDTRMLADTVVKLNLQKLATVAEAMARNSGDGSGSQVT
T3 sequence (Q9CAJ0 23-511 partner): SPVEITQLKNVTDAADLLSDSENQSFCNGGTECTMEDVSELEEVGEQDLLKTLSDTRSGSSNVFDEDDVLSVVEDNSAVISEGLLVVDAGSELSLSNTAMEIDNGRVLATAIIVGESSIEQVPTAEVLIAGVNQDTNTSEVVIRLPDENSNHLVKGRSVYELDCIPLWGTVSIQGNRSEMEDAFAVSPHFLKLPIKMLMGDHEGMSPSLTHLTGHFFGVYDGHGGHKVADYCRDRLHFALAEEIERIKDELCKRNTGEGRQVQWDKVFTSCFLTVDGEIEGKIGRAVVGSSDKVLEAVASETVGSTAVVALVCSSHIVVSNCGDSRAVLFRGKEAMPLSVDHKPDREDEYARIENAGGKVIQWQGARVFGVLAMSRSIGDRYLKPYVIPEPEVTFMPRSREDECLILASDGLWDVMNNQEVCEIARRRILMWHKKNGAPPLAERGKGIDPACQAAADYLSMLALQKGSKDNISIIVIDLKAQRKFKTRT
Chain of PYL1 (Q8VZS8 whole entry): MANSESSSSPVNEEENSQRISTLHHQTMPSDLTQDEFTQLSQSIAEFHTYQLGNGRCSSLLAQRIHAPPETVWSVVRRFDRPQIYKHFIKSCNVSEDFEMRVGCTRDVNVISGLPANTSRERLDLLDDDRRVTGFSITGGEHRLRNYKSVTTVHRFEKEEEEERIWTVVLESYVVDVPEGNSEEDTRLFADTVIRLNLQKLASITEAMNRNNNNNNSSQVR
T4 sequence (O49686 whole entry S47P/K59R/Y120H): as the sequence (O49686 whole entry F159L) above, with S47P, K59R, Y120H, L159F counted along it
T4 sequence (Q9CAJ0 23-511, stated change not applied, further chain): as the sequence (Q9CAJ0 23-511 partner) above
Chain of PYL2 (O80992 whole entry): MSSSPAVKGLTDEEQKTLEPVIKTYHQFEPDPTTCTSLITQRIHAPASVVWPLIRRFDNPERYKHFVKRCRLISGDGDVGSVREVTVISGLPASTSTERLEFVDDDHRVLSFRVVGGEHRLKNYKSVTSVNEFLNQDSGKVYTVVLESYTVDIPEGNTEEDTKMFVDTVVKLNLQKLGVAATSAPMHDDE
T2 sequence (O49686 whole entry K59R/S92T): as the sequence (O49686 whole entry F159L) above, with K59R, S92T, L159F counted along it
T2 sequence (Q9CAJ0 23-511, further chain): as the sequence (Q9CAJ0 23-511 partner) above
T5 sequence (O49686 whole entry): as the sequence (O49686 whole entry F159L) above, with L159F counted along it
T5 sequence (Q9CAJ0 23-511 partner): as the sequence (Q9CAJ0 23-511 partner) above
Chain of PYR1 (O49686 whole entry): as the sequence (O49686 whole entry F159L) above, with L159F counted along it
Chain of wild-type PYR1 (WT) (O49686 whole entry): as the sequence (O49686 whole entry F159L) above, with L159F counted along it
Chain of wild-type PYR1 (WT) (Q9CAJ0 23-511 partner): as the sequence (Q9CAJ0 23-511 partner) above
T1 sequence (Q9CAJ0 23-511): as the sequence (Q9CAJ0 23-511 partner) above
T1 sequence (O49686 whole entry K59R/H60R/N151D): as the sequence (O49686 whole entry F159L) above, with K59R, H60R, N151D, L159F counted along it

For the molecule `N#Cc1cc(Br)c(O)c(Br)c1` [bromoxynil], in assay [1], the “ability to reduce ABA-promoted PYR/PYL-PP2C protein-protein interactions” value was “compete for ABA”. Moreover, the “Responsiveness to bromoxynil (yeast two-hybrid)” value at PYR1 mutant 74A-1 and on PYR1 mutant 74A-2 was “responsive” each time.
Take `O=c1oc2ccccc2c(O)c1C1CCCc2ccccc21` (centres unmarked) [coumatetralyl]: the “ability to reduce ABA-promoted PYR/PYL-PP2C protein-protein interactions” value in assay [1] is on record as “compete for ABA”.
Take `CSC(=O)c1cccc2nnsc12` [BTH, acibenzolar-s-methyl]: the “Responsiveness to BTH (yeast two-hybrid)” value at PYR1 mutant BTH-9 was “responsive”.
For the molecule `N#Cc1cc(Cl)c(O)c(Cl)c1` [chloroxynil], the “ability to reduce ABA-promoted PYR/PYL-PP2C protein-protein interactions” value in assay [1] is reported as “compete for ABA”.
Regarding `N#Cc1c(Cl)cccc1Cl` [dichlobenil], the “Responsiveness, Dichlobenil [50 μM]” value at wild-type PYR1 (WT) was “not activated”. Moreover, in assay [1], the “ability to reduce ABA-promoted PYR/PYL-PP2C protein-protein interactions” value is reported as “compete for ABA”. In the assay on PYR/PYL receptors, the “Concentration at which receptors are weakly activated” value is at least 200 µM.
In the case of `O=S(=O)(NCc1ccccn1)c1ccc(Br)c2ccccc12` [pyrabactin], the figures for the Responsiveness to pyrabactin entry at PYR1, on PYL1 and at PYL2 were “strong responsiveness”, “strong responsiveness” and “do not”, respectively.
Take `CC1=CC(=O)CC(C)(C)[C@@]1(O)/C=C/C(C)=C\C(=O)O` [ABA, abscisic acid]: the “Receptor activation (inhibition of PP2C activity)” value in assay [2] is “failed to activate”; at wild-type PYR1 protein, “efficiently activated”.
